{"source": "paper PMC9545474", "about": "“Anticancer Water‐Soluble Organoruthenium Complexes: Synthesis and Preclinical Evaluation” (Chembiochem, 2022)", "key": {"[1]": {"tested_on": "PNT2 non-cancerous human prostate cells", "experiment": "24-hour MTT chemosensitivity assay with 72-hour recovery, PNT2", "assay_type": "cell-based", "conditions": "24 h exposure, 72 h recovery, MTT; read-out: IC50 values ±SD, PNT2", "procedure": "(§1) Chemosensitivity studies were undertaken using a 24‐hour MTT assay, with a 72‐hour recovery period. The IC50 values were determined against ovarian A2780 (cisplatin‐sensitive) and A2780cisR (cisplatin‐resistant) cancer cell lines, non‐small‐cell lung H460 cancer cell line, and normal prostate PNT2 cell line, exposed to each of compounds 4–8, cisplatin or the phosphine ligands (Table 1 and S4, Figures S29–S31). […] This is unusual but can be related to solubility issues not visible for the naked eye and thus hindering its activity in cells. […] When tested on their own, the phosphine ligands are not active below 100 μM for all four cell lines. […] This therefore prevents comparison with the well‐known RAPTA family, and more especially with RAPTA−C which bears a PTA ligand and a p‐cym ligand, making this complex relatively similar in terms of geometry with complex 4.[21] […] This confirms the interest of the sulfur coordinating atom in terms of cytotoxicity for organoruthenium complexes.[23]\n(§2) Chemosensitivity assay: In vitro chemosensitivity tests were performed against A2780, A2780cisR, PNT2 and H460 cells. Cells were routinely maintained as monolayer cultures in RPMI 1640 medium supplemented with 10 % foetal calf serum, penicillin (100 I.U./mL) and streptomycin (100 μg/mL), sodium pyruvate (1 mM) and L‐glutamine (2 mM). For chemosensitivity studies, cells were seeded in 96‐well plates at a concentration of 7.5×10^3 cells per well and the plates were incubated for 24 h at 37 °C and a 5 % CO2 humidified atmosphere prior to drug exposure.\n(§3) Complexes were dissolved in either DMSO (complexes 4, 5, and 8) or PBS (complexes 6 and 7) to provide stock solutions which were further diluted with media to provide a range of final concentrations. Drug‐media solutions were added to cells (the final concentration of DMSO was less than 1 % (v/v) in all cases) and incubated for 24 h at 37 °C and a 5 % CO2 humidified atmosphere. The drug‐media solution was removed from the wells and the cells were washed with PBS (100 μL, twice) and 200 μL of complete fresh media were added to each well. The plates were further incubated for 72 h at 37 °C and a 5 % CO2 humidified atmosphere to allow for a period of recovery. 3‐(4,5‐dimethylthiazol‐2‐yl)‐2,5‐diphenyltetrazolium bromide (MTT) (40 μL, 2.5 mg/mL) was added to each well and plates were incubated for 2 h. All solutions were then removed and 100 μL of DMSO was added to each well in order to dissolve the purple formazan crystals. A Thermo Scientific Multiskan EX microplate photometer was used to measure the absorbance in each well at 570 nm. Cell survival was determined as the absorbance of treated cells divided by the absorbance of controls and expressed as a percentage. The IC50 values were determined from plots of % survival against drug concentration. Each experiment was repeated in triplicates of triplicates and a mean value was obtained and stated as IC50 (μM) ± SD. Untreated cells were used as a negative control, and cells treated with cisplatin were used as a positive control."}, "[2]": {"tested_on": "A2780 cells", "experiment": "ROS detection, DCFH2-DA assay by flow cytometry", "assay_type": "cell-based, human", "conditions": "A2780, five hours, IC50 concentrations", "experimental": "To confirm the hypothesis of induction of oxidative stress by complexes 6 and 8, based on the potential mechanism of action observed for complex 3, the intracellular production of ROS in A2780 cells exposed to the complexes was investigated using the fluorescent DCFH2‐DA assay with the analysis performed by flow cytometry.\nROS detection: Flow cytometry analysis of total induction of ROS in A2780 cells caused by exposure to complexes 6 and 8 was carried out using DCFH2‐DA assay. Briefly, 1.0×10^6 cells per well were seeded in a 6‐well plate and incubated for 24 at 37 °C and a 5 % CO2 humidified atmosphere. After removal of the media, cells were washed with PBS and loaded with DCFH2‐DA dye (20 μM, in basal RPMI). […] Cells were washed with PBS and harvested with trypsin. Cells were analysed in a BD Accuri C6 Plus System Flow Cytometer using Ex/Em: 490/525 nm for the oxidative stress detection. Data was analysed using the BD Accuri C6 Plus software."}, "[3]": {"conditions": "mice", "procedure": "Compounds: All compounds were provided in powdered form and stored in the −20 °C freezer. They were formulated just before use. […] The drugs were then administered within 10 minutes of initial dilution.\nAnimals: Female Balb/c immunodeficient nude mice aged 6–12 weeks were used (Envigo, Blackthorn, UK). Mice were kept in cages housed in isolation cabinets in an air‐conditioned room with regular alternating cycles of light and darkness. They received Teklad 2018 diet (Envigo, Blackthorn, UK) and water ad libitum. All animal procedures were carried out under a project licence issued by the UK Home Office and UK National Cancer Research Institute Guidelines for the Welfare of Animals were followed throughout.\n(1 picture or pasted object on this page, not shown here)"}, "[4]": {"tested_on": "A2780cisR cisplatin-resistant ovarian cancer cells", "experiment": "24-hour MTT chemosensitivity assay with 72-hour recovery, A2780cisR", "assay_type": "cell-based, human", "conditions": "for IC50: 24 h exposure, 72 h recovery, MTT, read-out: IC50 values ±SD, A2780cisR; for Selectivity index (SI), A2780cisR: mean IC50 PNT2 / mean IC50 A2780cisR", "procedure": "as §1, §2, §3"}, "[5]": {"tested_on": "A2780cisR cells", "experiment": "Cell viability with N-acetylcysteine (MTT), A2780cisR", "assay_type": "cell-based, human", "conditions": "NAC 5 mM 30 min before complexes at IC50", "procedure": "Cell viability with N ‐acetylcysteine: Cells were seeded in 96‐well plates at a concentration of 7.5×10^3 cells per well and the plates were incubated for 24 h at 37 °C and a 5 % CO2 humidified atmosphere prior to drug exposure. Complexes were dissolved in either DMSO or PBS to provide stock solutions which were further diluted with media to provide a range of final concentrations. Solution of N‐acetylcysteine (NAC) in media was also prepared. […] Cells were incubated for 24 h at 37 °C and a 5 % CO2 humidified atmosphere. 3‐(4,5‐dimethylthiazol‐2‐yl)‐2,5‐diphenyltetrazolium bromide (MTT) (20 μL, 2.5 mg/mL) was added to each well and plates were incubated for 2 h. All solutions were then removed and 100 μL of DMSO was added to each well in order to dissolve the purple formazan crystals. A Thermo Scientific Multiskan EX microplate photometer was used to measure the absorbance in each well at 570 nm. Cell survival was determined as the absorbance of treated cells divided by the absorbance of controls and expressed as a percentage."}, "[6]": {"experiment": "Reactivity with NAC by NMR", "assay_type": "physicochemical", "conditions": "NMR studies over 24 hours"}}}
{"molecule": "Cc1ccc(C(C)C)cc1.N#CC1=C(C#N)[S][Ru-]([P+](c2ccccc2)(c2ccccc2)c2ccccc2)[S]1", "note": "[Complex 8, (η^6‐p‐cymene)(PPh3)Ru(Mnt)]", "values": [{"measurement": "IC50", "setting": "[1]", "result": "2400 ± 200", "unit": "nM"}, {"measurement": "ROS levels in treated cells compared to untreated cells", "setting": "[2]", "result": "significant increase of ROS levels"}, {"measurement": "maximum tolerated dose (MTD)", "setting": "[3]; i.p. daily, monitored for a further two weeks", "result": 15, "unit": "mg/kg"}, {"measurement": "Toxicity in MTD run", "setting": "[3]; i.p., 15mg/kg in 20 % DMSO/arachis oil, full run", "result": "no evidence of toxicity was seen"}, {"measurement": "IC50", "setting": "[4]", "result": "980 ± 60", "unit": "nM"}, {"measurement": "Selectivity index (SI), A2780cisR", "setting": "[4]", "result": 2.45}, {"measurement": "Cell viability after pre-treatment with NAC", "setting": "[5]", "result": "increase of the cell viability"}]}
{"molecule": "(η^6‐p‐cymene)(TPPTS)Ru(Mnt) [Complex 6]", "values": [{"measurement": "IC50", "setting": "[1]", "result": "1600 ± 300", "unit": "nM"}, {"measurement": "ROS levels in treated cells compared to untreated cells", "setting": "[2]", "result": "significant increase of ROS levels"}, {"measurement": "IC50", "setting": "[4]", "result": "1300 ± 10", "unit": "nM"}, {"measurement": "Selectivity factor (cross-resistance, resistance factor RF)", "setting": "[4]; IC50 A2780cisR / IC50 A2780", "result": 2.2}, {"measurement": "Selectivity index (SI), A2780cisR", "setting": "[4]", "result": 1.23}, {"measurement": "Reaction with NAC", "setting": "[6]", "result": "do not react together"}, {"measurement": "Cell viability after pre-treatment with NAC", "setting": "[5]", "result": "increase of the cell viability"}]}
